# How the values were obtained:
# Test in all cases: cells
# [1] = system: ES3; type: functional, cell-based, Homo sapiens; conditions: Homo sapiens, ES3;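 further: growth inhibition of ES3 cells, read out with a cell viability assay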
# Description: SANGER: Inhibition of human ES3 cell growth in a cell viability assay.
# [2] = system: SW837; type: functional, cell-based, Homo sapiens; conditions: Homo sapiens, SW837;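 further: growth inhibition of SW837 cells, determined with a cell viability assay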
# Description: SANGER: Inhibition of human SW837 cell growth in a cell viability assay.
# [3] = system: NMC-G1; type: functional, cell-based, Homo sapiens; conditions: Homo sapiens, NMC-G1;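 further: growth inhibition of the NMC-G1 cell line, measured with a cell viability read-out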
# Description: SANGER: Inhibition of human NMC-G1 cell growth in a cell viability assay.
# [4] = system: MFE-280; type: functional, cell-based, Homo sapiens; conditions: Homo sapiens, MFE-280;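 further: growth inhibition of MFE-280 cells, determined with a cell viability readout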
# Description: SANGER: Inhibition of human MFE-280 cell growth in a cell viability assay.
# [5] = system: ALL-PO; type: functional, cell-based; conditions: Homo sapiens;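 further: growth inhibition of ALL-PO cells, read out by a cell viability assay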
# Description: SANGER: Inhibition of human ALL-PO cell growth in a cell viability assay.
# [6] = system: SW1573; type: functional, cell-based, Homo sapiens; conditions: Homo sapiens, SW1573;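 further: growth inhibition of SW1573 cells, read out with a cell viability assay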
# Description: SANGER: Inhibition of human SW1573 cell growth in a cell viability assay.
# [7] = system: YKG-1; type: functional, cell-based, Homo sapiens; conditions: Homo sapiens, YKG-1;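 further: cell growth inhibition, read out with a viability assay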
# Description: SANGER: Inhibition of human YKG-1 cell growth in a cell viability assay.
# [8] = system: EGI-1; type: functional, cell-based, Homo sapiens; conditions: Homo sapiens, EGI-1;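 further: cell viability readout used to gauge growth inhibition of EGI-1 cells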
# Description: SANGER: Inhibition of human EGI-1 cell growth in a cell viability assay.
# [9] = system: KM-H2; type: functional, cell-based; conditions: Homo sapiens;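 further: growth inhibition of KM-H2 cells, read out by a cell viability assay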
# Description: SANGER: Inhibition of human KM-H2 cell growth in a cell viability assay.
# [10] = system: ES1; type: functional, cell-based, Homo sapiens; conditions: Homo sapiens, ES1;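 further: growth inhibition of ES1 cells, read out with a cell viability assay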
# Description: SANGER: Inhibition of human ES1 cell growth in a cell viability assay.
# [11] = system: SF-268; type: functional, cell-based, Homo sapiens; conditions: Homo sapiens, SF-268;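 further: growth inhibition of SF-268 cells determined with a cell viability assay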
# Description: SANGER: Inhibition of human SF268 cell growth in a cell viability assay.
# [12] = system: SW982; type: functional, cell-based; conditions: Homo sapiens;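 further: growth inhibition of SW982 cells, read out with a cell viability assay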
# Description: SANGER: Inhibition of human SW982 cell growth in a cell viability assay.
# [13] = system: U-251; type: functional, cell-based, Homo sapiens; conditions: Homo sapiens, U-251;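 further: growth inhibition of human U-251 cells, read out through a cell viability assay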
# Description: SANGER: Inhibition of human U251 cell growth in a cell viability assay.
# [14] = system: LS-513; type: functional, cell-based, Homo sapiens; conditions: Homo sapiens, LS-513
# Description: SANGER: Inhibition of human LS-513 cell growth in a cell viability assay.
# [15] = system: P30-OHK; type: functional, cell-based; conditions: Homo sapiens;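 further: growth inhibition of the P30-OHK cell line, read out with a cell viability assay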
# Description: SANGER: Inhibition of human P30-OHK cell growth in a cell viability assay.
# [16] = system: SW1417; type: functional, cell-based, Homo sapiens; conditions: Homo sapiens, SW1417;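 further: growth inhibition of human SW1417 cells, read out with a cell viability assay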
# Description: SANGER: Inhibition of human SW1417 cell growth in a cell viability assay.
# [17] = system: PSN1; type: functional, cell-based, Homo sapiens; conditions: Homo sapiens, PSN1;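 further: suppression of growth of human PSN1 cells, read out by a cell viability assay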
# Description: SANGER: Inhibition of human PSN1 cell growth in a cell viability assay.
# [18] = system: SF-295; type: functional, cell-based, Homo sapiens; conditions: Homo sapiens, SF-295; read-out: IC50;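 further: growth inhibition of SF-295 cells, read out with a cell viability assay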
# Description: SANGER: Inhibition of human SF295 cell growth in a cell viability assay.
# [19] = system: KYSE-140; type: functional, cell-based, Homo sapiens; conditions: Homo sapiens, KYSE-140;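 further: cell viability assay measuring growth inhibition in human KYSE-140 cells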
# Description: SANGER: Inhibition of human KYSE-140 cell growth in a cell viability assay.
# [20] = system: KE-37; type: functional, cell-based; conditions: Homo sapiens;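 further: growth inhibition of KE-37 cells, read out with a cell viability assay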
# Description: SANGER: Inhibition of human KE-37 cell growth in a cell viability assay.
# [21] = system: AM-38; type: functional, cell-based, Homo sapiens; conditions: Homo sapiens, AM-38;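 further: growth inhibition of AM-38 cells of human origin, read out by a cell viability assay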
# Description: SANGER: Inhibition of human AM-38 cell growth in a cell viability assay.
# [22] = system: CAL-51; type: functional, cell-based, Homo sapiens; conditions: Homo sapiens, CAL-51;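 further: human CAL-51 cell line, growth inhibition read out via a cell viability assay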
# Description: SANGER: Inhibition of human CAL-51 cell growth in a cell viability assay.
# [23] = system: EW-18; type: functional, cell-based; conditions: Homo sapiens;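 further: growth inhibition of EW-18 cells, read out by a cell viability assay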
# Description: SANGER: Inhibition of human EW-18 cell growth in a cell viability assay.
# [24] = system: OVCAR-3; type: functional, cell-based, Homo sapiens; conditions: Homo sapiens, OVCAR-3;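 further: growth inhibition of human OVCAR-3 cells, determined by a cell viability assay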
# Description: SANGER: Inhibition of human OVCAR-3 cell growth in a cell viability assay.
# [25] = system: CAL-39; type: functional, cell-based, Homo sapiens; conditions: Homo sapiens, CAL-39;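 further: cell viability assay measuring growth inhibition of CAL-39 cells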
# Description: SANGER: Inhibition of human CAL-39 cell growth in a cell viability assay.
# [26] = system: NCI-H441; type: functional, cell-based; conditions: Homo sapiens;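 further: growth inhibition of NCI-H441 cells, read out with a cell viability assay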
# Description: SANGER: Inhibition of human NCI-H441 cell growth in a cell viability assay.
# [27] = system: U-87 MG; type: functional, cell-based, U-87MG ATCC; conditions: Homo sapiens;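 further: growth inhibition of the cells measured with a viability assay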
# Description: SANGER: Inhibition of human U-87-MG cell growth in a cell viability assay.
# [28] = system: RPMI-8226; type: functional, cell-based; conditions: Homo sapiens
# Description: SANGER: Inhibition of human RPMI-8226 cell growth in a cell viability assay.
# [29] = system: MDA-MB-453; type: functional, cell-based, Homo sapiens; conditions: Homo sapiens, MDA-MB-453
# Description: SANGER: Inhibition of human MDA-MB-453 cell growth in a cell viability assay.
# [30] = system: NCI-H209; type: functional, cell-based; conditions: Homo sapiens;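 further: growth inhibition of human NCI-H209 cells, measured by a cell viability assay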
# Description: SANGER: Inhibition of human NCI-H209 cell growth in a cell viability assay.
# [31] = system: JAR; type: functional, cell-based, Homo sapiens; conditions: Homo sapiens, JAR;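 further: growth inhibition of human JAR cells determined with a cell viability assay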
# Description: SANGER: Inhibition of human JAR cell growth in a cell viability assay.
# [32] = system: HT1197; type: functional, cell-based, Homo sapiens, HT-1197; conditions: Homo sapiens, HT1197
# Description: SANGER: Inhibition of human HT-1197 cell growth in a cell viability assay.
# [33] = system: SW 954; type: functional, cell-based, Homo sapiens; conditions: Homo sapiens, SW 954;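 further: growth inhibition of SW954 human cancer cells, read out as cell viability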
# Description: SANGER: Inhibition of human SW954 cell growth in a cell viability assay.
# [34] = system: ES8; type: functional, cell-based, Homo sapiens; conditions: Homo sapiens, ES8;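 further: growth inhibition of human ES8 cells, read out with a cell viability assay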
# Description: SANGER: Inhibition of human ES8 cell growth in a cell viability assay.
# [35] = system: ESS-1; type: functional, cell-based, Homo sapiens; conditions: Homo sapiens, ESS-1;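 further: growth inhibition of human ESS-1 cells, read out by a cell viability assay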
# Description: SANGER: Inhibition of human ESS-1 cell growth in a cell viability assay.
# [36] = system: Daoy; type: functional, cell-based, Homo sapiens; conditions: Homo sapiens, Daoy;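 further: daoy cell growth inhibition, read out as cell viability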
# Description: SANGER: Inhibition of human Daoy cell growth in a cell viability assay.
# [37] = system: SK-MEL-30; type: functional, cell-based; conditions: Homo sapiens;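 further: growth inhibition of SK-MEL-30 cells, determined with a cell viability assay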
# Description: SANGER: Inhibition of human SK-MEL-30 cell growth in a cell viability assay.
# [38] = system: NB17; type: functional, cell-based; conditions: Homo sapiens;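 further: growth inhibition of NB17 cells, read out with a cell viability assay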
# Description: SANGER: Inhibition of human NB17 cell growth in a cell viability assay.
# [39] = system: IST-MES1; type: functional, cell-based, Homo sapiens; conditions: Homo sapiens, IST-MES1;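 further: growth inhibition of IST-MES1 cells, measured with a cell viability assay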
# Description: SANGER: Inhibition of human IST-MES1 cell growth in a cell viability assay.
# [40] = system: TE-8; type: functional, cell-based, Homo sapiens; conditions: Homo sapiens, TE-8;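 further: growth inhibition of TE-8 cells, measured with a cell viability readout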
# Description: SANGER: Inhibition of human TE-8 cell growth in a cell viability assay.
# [41] = system: UMUC3; type: functional, cell-based, Homo sapiens; conditions: Homo sapiens, UMUC3;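 further: growth inhibition of human UM-UC-3 cells, read out with a cell viability assay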
# Description: SANGER: Inhibition of human UM-UC-3 cell growth in a cell viability assay.
# [42] = system: RKO; type: functional, cell-based, Homo sapiens; conditions: Homo sapiens, RKO;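 further: growth inhibition of human RKO cells, read out with a cell viability assay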
# Description: SANGER: Inhibition of human RKO cell growth in a cell viability assay.
# [43] = system: Calu-3; type: functional, cell-based, Homo sapiens; conditions: Homo sapiens, Calu-3;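 further: growth inhibition of human Calu-3 cells, determined with a cell viability assay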
# Description: SANGER: Inhibition of human Calu-3 cell growth in a cell viability assay.
# [44] = system: MSTO-211H; type: functional, cell-based, Homo sapiens; conditions: Homo sapiens, MSTO-211H
# Description: SANGER: Inhibition of human MSTO-211H cell growth in a cell viability assay.
# [45] = system: KP-4; type: functional, cell-based, Homo sapiens; conditions: Homo sapiens, KP-4; read-out: IC50;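 further: human KP-4 cells, with growth inhibition read out through a cell viability assay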
# Description: SANGER: Inhibition of human KP-4 cell growth in a cell viability assay.
# [46] = system: BEN; type: functional, cell-based, Homo sapiens; conditions: Homo sapiens, BEN;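 further: growth inhibition of the BEN cell line, read out with a cell viability assay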
# Description: SANGER: Inhibition of human BEN cell growth in a cell viability assay.
# [47] = system: HCE-T; type: functional, cell-based, Homo sapiens; conditions: Homo sapiens, HCE-T;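 further: cell viability assay read-out, reporting inhibition of HCE-T cell growth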
# Description: SANGER: Inhibition of human HCE-T cell growth in a cell viability assay.
# [48] = system: COR-L88; type: functional, cell-based; conditions: Homo sapiens;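 further: growth inhibition of COR-L88 cells, read out with a cell viability assay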
# Description: SANGER: Inhibition of human COR-L88 cell growth in a cell viability assay.
# [49] = system: DK-MG; type: functional, cell-based, Homo sapiens; conditions: Homo sapiens, DK-MG;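 further: growth inhibition of DK-MG cells, read out with a cell viability assay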
# Description: SANGER: Inhibition of human DK-MG cell growth in a cell viability assay.
compound,measurement,setting,value
COc1cc(F)c(F)c(Nc2ccc(I)cc2F)c1NS(=O)(=O)C1(CC(O)CO)CC1 (stereo not drawn),IC50,[1],> 5000 nM
same,IC50,[2],> 5000 nM
same,IC50,[3],> 5000 nM
same,IC50,[4],> 5000 nM
same,IC50,[5],> 5000 nM
same,IC50,[6],> 5000 nM
same,IC50,[7],938 nM
same,IC50,[8],1310 nM
same,IC50,[9],> 5000 nM
same,IC50,[10],> 5000 nM
same,IC50,[11],> 5000 nM
same,IC50,[12],436 nM
same,IC50,[13],> 5000 nM
same,IC50,[14],414 nM
same,IC50,[15],> 5000 nM
same,IC50,[16],> 5000 nM
same,IC50,[17],198 nM
same,IC50,[18],> 5000 nM
same,IC50,[19],2900 nM
same,IC50,[20],> 5000 nM
same,IC50,[21],> 5000 nM
same,IC50,[22],> 5000 nM
same,IC50,[23],2770 nM
same,IC50,[24],> 5000 nM
same,IC50,[25],415 nM
same,IC50,[26],> 5000 nM
same,IC50,[27],> 5000 nM
same,IC50,[28],4510 nM
same,IC50,[29],> 5000 nM
same,IC50,[30],> 5000 nM
same,IC50,[31],> 5000 nM
same,IC50,[32],> 5000 nM
same,IC50,[33],> 5000 nM
same,IC50,[34],> 5000 nM
same,IC50,[35],> 5000 nM
same,IC50,[36],> 5000 nM
same,IC50,[37],> 5000 nM
same,IC50,[38],> 5000 nM
same,IC50,[39],> 5000 nM
same,IC50,[40],1120 nM
same,IC50,[41],> 5000 nM
same,IC50,[42],1390 nM
same,IC50,[43],4900 nM
same,IC50,[44],3080 nM
same,IC50,[45],> 5000 nM
same,IC50,[46],> 5000 nM
same,IC50,[47],> 5000 nM
same,IC50,[48],> 5000 nM
same,IC50,[49],2830 nM
COc1ccc(-c2ccc3c(N4CCOC[C@@H]4C)nc(N4CCOC[C@@H]4C)nc3n2)cc1CO [AZD-8055],IC50,[1],1130 nM
same,IC50,[2],> 2000 nM
same,IC50,[3],1310 nM
same,IC50,[4],430 nM
same,IC50,[5],1440 nM
same,IC50,[6],1600 nM
same,IC50,[7],1610 nM
same,IC50,[8],135 nM
same,IC50,[9],1560 nM
same,IC50,[10],555 nM
same,IC50,[11],> 2000 nM
same,IC50,[12],685 nM
same,IC50,[13],> 2000 nM
same,IC50,[14],> 2000 nM
same,IC50,[15],327 nM
same,IC50,[16],> 2000 nM
same,IC50,[17],771 nM
same,IC50,[18],685 nM
same,IC50,[19],782 nM
same,IC50,[20],432 nM
same,IC50,[21],1370 nM
same,IC50,[22],197 nM
same,IC50,[23],141 nM
same,IC50,[24],> 2000 nM
same,IC50,[25],523 nM
same,IC50,[26],> 2000 nM
same,IC50,[27],> 2000 nM
same,IC50,[28],286 nM
same,IC50,[29],1160 nM
same,IC50,[30],54.5 nM
same,IC50,[31],> 2000 nM
same,IC50,[32],> 2000 nM
same,IC50,[33],> 2000 nM
same,IC50,[34],366 nM
same,IC50,[35],> 2000 nM
same,IC50,[36],1100 nM
same,IC50,[37],> 2000 nM
same,IC50,[38],> 2000 nM
same,IC50,[39],> 2000 nM
same,IC50,[40],1460 nM
same,IC50,[41],1480 nM
same,IC50,[42],868 nM
same,IC50,[43],1650 nM
same,IC50,[44],578 nM
same,IC50,[45],> 2000 nM
same,IC50,[46],213 nM
same,IC50,[47],1180 nM
same,IC50,[48],423 nM
same,IC50,[49],> 2000 nM

# Reference: ChEMBL document CHEMBL1201861, “Genomics of Drug Sensitity in Cancer screening data, Wellcome Trust Sanger Institute”
